Laboratory results from paper PMC6635573, “A live cell NanoBRET binding assay allows the study of ligand-binding kinetics to the adenosine A3 receptor” (Purinergic Signalling, 2019).

Tests used:
human A3AR [1] = target: T1, human A3AR (Homo sapiens, UniProt P0DMS8); assay: [3H]PSB-11 radioligand competition association (Motulsky and Mahan) in Nluc-A3AR HEK293 membranes; format: binding; design: expressed in transfected cells; settings: for Kd: read-out: Kinetics pKD (converted)
T1 sequence (P0DMS8 1-318): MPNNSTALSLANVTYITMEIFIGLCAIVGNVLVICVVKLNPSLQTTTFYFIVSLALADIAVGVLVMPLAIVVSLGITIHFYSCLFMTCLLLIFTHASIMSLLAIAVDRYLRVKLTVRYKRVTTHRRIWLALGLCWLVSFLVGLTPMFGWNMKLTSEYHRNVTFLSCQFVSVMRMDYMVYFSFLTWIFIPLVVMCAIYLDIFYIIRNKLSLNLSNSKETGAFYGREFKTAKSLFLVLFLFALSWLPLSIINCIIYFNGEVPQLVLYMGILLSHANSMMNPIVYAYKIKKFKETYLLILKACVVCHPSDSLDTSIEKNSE
Description: (§1) Prior to all experiments, membranes from HEK293 membranes expressing human Nluc-A3AR were diluted to 20 μg/well in a total volume of 100 μL/well assay buffer (50 mM Tris-HCl, 5 mM MgCl2, supplemented with 0.01% CHAPS and 1 mM EDTA, pH 7.4) and homogenised using an IKA T10 Ultra-Turrax disperser in 3 × 5 s bursts at 15,000 rpm. For equilibrium displacement assays, membranes were placed in 96-well microplates at 10 °C and the required concentration of competing agonist was added in the presence of a final concentration of ~ 10 nM [^3H] […] For association assays, Nluc-A3AR HEK293 membranes were placed at 10 °C in 96-well microplates and the amount of radioligand bound to the receptor was measured at different time points during a total incubation of 120 min. For dissociation experiments, HEK293 membranes expressing human Nluc-A3AR were incubated for 120 min with ~ 10 nM [^3H] […] The competition association assays were initiated by the addition of Nluc-A3AR HEK293 membranes at different time points for a total of 240 min to a total volume of 100 μl/well of assay buffer at 10 °C with ~ 10 nM [^3H] […] For all experiments, incubation was terminated by rapid filtration performed on 96-well GF/B filter plates using a PerkinElmer Filtermate-harvester (PerkinElmer, Groningen, The Netherlands). After drying the filter plate at 50 °C for 30 min, the filter-bound radioactivity was determined by scintillation spectrometry using a 2450 MicroBeta^2 Plate Counter (PerkinElmer, Boston, MA). In addition, the exact concentration of [^3H]
(§2) The binding kinetics of unlabelled ligands was quantified using the competition association assay based on the theoretical framework by Motulsky and Mahan. NanoBRET and radioligand data were fitted into the competition association model using ‘kinetics of competitive binding’ to determine association and dissociation rate constants of the unlabelled compounds:
KA=k1L⋅10^−9+k2KB=k3I⋅10^−9+k4S=KA−KB^2+4⋅k1⋅k3⋅L⋅I⋅10^−18KF=0.5KA+KB+SKS=0.5KA+KB−SQ=Bmax⋅k1⋅L⋅10^−9/KF−KSY=Q⋅k4⋅KF−KS/KF⋅KS+k4−KF/KFe^−KF⋅X−k4−KS/KSe^−KS⋅X where k1 is the kon of the labelled ligand (M^−1 min^−1), k2 is the koff of the labelled ligand (min^−1), L is the concentration of the labelled ligand in nanomolar, I is the concentration of the unlabelled competitor (nM), X is the time (min) and Y is the specific binding of the labelled ligand (NanoBRET ratio or DPM).
(§3) k1 and k2 values were generated from association kinetic experiments. k3, k4 and Bmax were then calculated, where k3 represents the kon (M^−1 min^−1) of the unlabelled ligand, k4 stands for the koff (min^−1) of the unlabelled ligand and Bmax equals the total binding (NanoBRET ratio or DPM). The residence time (RT) was calculated as the reciprocal of the ligand dissociation rate constant as follows: RT=1/koff
This was borne out in the kinetics parameters obtained from fitting the data to the Motulsky and Mahan model (Table 2).

human A3AR [2] = target: T1, human A3AR; assay: NanoBRET association kinetics of fluorescent antagonists in live Nluc-A3AR HEK293 cells; settings: for residence time: read-out: Kinetics RT (residence time); for koff: read-out: Kinetics koff; for kon: read-out: Kinetics kon
Description: (§4) For saturation and competition binding assays, the required concentration of fluorescent ligand and competing ligand was added simultaneously and incubated for 1 h (for AV039) or 3 h (for XAC-S-ser-S-tyr-X-BY630) at 37 °C (no CO2). After 1 h, 10 μM furimazine was added to each well and the plate incubated for 5 min at 37 °C before reading. […] For association kinetic experiments, following the furimazine incubation, the required concentration of fluorescent ligand in the presence or absence of 10 μM MRS1220 was added simultaneously and the plate read immediately once per minute for up to 3 h at 37 °C. For kinetic competition association assays, after furimazine incubation, either XAC-S-ser-S-tyr-X-BY630 (20 nM) or AV039 (40 nM) were added simultaneously with the required concentration of unlabelled ligand or 10 μM MRS1220 to determine non-specific binding and read once per minute for the indicated times at 37 °C. For all NanoBRET experiments, fluorescence and luminescence were read using a PHERAstar FS plate reader (BMG Labtech, Ortenberg, Germany). Filtered light emissions were measured at 460 nm (80 nm band pass) and at > 610 nm (long pass) for the BY630 labelled ligands and at 450 nm (80 nm band pass) and > 550 nm (long pass) for the BYFL labelled ligand. The raw NanoBRET ratio was calculated by dividing the fluorescence emission (610 or 550 nm) by the luminescence emission (460 or 450 nm).
For NanoBRET association kinetic data, non-specific binding was determined in wells with fluorescent ligand plus 10 μM MRS1220 and this was obtained for each concentration of fluorescent ligand at each time point. This was subsequently subtracted from total binding at the equivalent time point. The data were simultaneously fit to the following equations: Y=Ymax1−e^−kobst kon=kobs−koff/L where Ymax equals the level of binding at infinite time (t), kobs is the rate constant for the observed rate of association at a particular concentration of L, [L] is the ligand concentration in molar, koff is the dissociation rate constant of the ligand in per minute and kon is the association rate constant in per molar per minute. From this, the equilibrium dissociation constant (KD) is determined as follows: KD=koff/kon

human A3AR [3] = target: T1, human A3AR; assay: [3H]PSB-11 radioligand equilibrium displacement in Nluc-A3AR HEK293 membranes; format: binding; design: expressed in transfected cells; settings: read-out: Equilibrium competition pKi (converted)
Description: Prior to all experiments, membranes from HEK293 membranes expressing human Nluc-A3AR were diluted to 20 μg/well in a total volume of 100 μL/well assay buffer (50 mM Tris-HCl, 5 mM MgCl2, supplemented with 0.01% CHAPS and 1 mM EDTA, pH 7.4) and homogenised using an IKA T10 Ultra-Turrax disperser in 3 × 5 s bursts at 15,000 rpm. For equilibrium displacement assays, membranes were placed in 96-well microplates at 10 °C and the required concentration of competing agonist was added in the presence of a final concentration of ~ 10 nM [^3H] […] For all experiments, incubation was terminated by rapid filtration performed on 96-well GF/B filter plates using a PerkinElmer Filtermate-harvester (PerkinElmer, Groningen, The Netherlands). […] In addition, the exact concentration of [^3H]

human A3AR [4] = target: T1, human A3AR; assay: NanoBRET saturation binding of fluorescent antagonists in live Nluc-A3AR HEK293 cells
Description: as §4
NanoBRET total and non-specific saturation binding curves were fitted simultaneously using the following equation: BRET ratio=Bmax.B/B+KD+M.B+C where Bmax is the maximal specific binding achieved, [B] is the concentration of fluorescent ligand, KD is the equilibrium dissociation constant, M is the slope of the non-specific binding component and C is the intercept with the Y-axis.
Initially, we determined the affinity of each of these fluorescent antagonists at NanoLuc tagged A3AR (Nluc-A3AR) in the NanoBRET assay.

human A3AR [5] = target: T1, human A3AR; assay: NanoBRET equilibrium competition binding with XAC-S-ser-S-tyr-X-BY630 as probe in Nluc-A3AR HEK293 cells; design: expressed in transfected cells
human A3AR [6] = target: T1, human A3AR; assay: NanoBRET equilibrium competition binding with AV039 as probe in Nluc-A3AR HEK293 cells
Description: For saturation and competition binding assays, the required concentration of fluorescent ligand and competing ligand was added simultaneously and incubated for 1 h (for AV039) or 3 h (for XAC-S-ser-S-tyr-X-BY630) at 37 °C (no CO2). After 1 h, 10 μM furimazine was added to each well and the plate incubated for 5 min at 37 °C before reading. […] For association kinetic experiments, following the furimazine incubation, the required concentration of fluorescent ligand in the presence or absence of 10 μM MRS1220 was added simultaneously and the plate read immediately once per minute for up to 3 h at 37 °C. For kinetic competition association assays, after furimazine incubation, either XAC-S-ser-S-tyr-X-BY630 (20 nM) or AV039 (40 nM) were added simultaneously with the required concentration of unlabelled ligand or 10 μM MRS1220 to determine non-specific binding and read once per minute for the indicated times at 37 °C. For all NanoBRET experiments, fluorescence and luminescence were read using a PHERAstar FS plate reader (BMG Labtech, Ortenberg, Germany). Filtered light emissions were measured at 460 nm (80 nm band pass) and at > 610 nm (long pass) for the BY630 labelled ligands and at 450 nm (80 nm band pass) and > 550 nm (long pass) for the BYFL labelled ligand. […]

human A3AR [7] = target: T1, human A3AR; assay: NanoBRET kinetic competition association with AV039 as probe in Nluc-A3AR HEK293 cells; format: binding; design: expressed in transfected cells; settings: for Kd: read-out: Kinetics pKD (probe AV039) (converted); for Kinetics RT (probe AV039): reciprocal of koff, NanoBRET competition association with 40 nM AV039, cells
Description: as §2, §3

human A3AR [8] = target: T1, human A3AR; assay: NanoBRET kinetic competition association with XAC-S-ser-S-tyr-X-BY630 as probe in Nluc-A3AR HEK293 cells; format: binding; design: expressed in transfected cells; settings: for Kinetics RT (probe XAC-S-ser-S-tyr-X-BY630): reciprocal of koff, NanoBRET competition association with 20 nM XAC-S-ser-S-tyr-X-BY630, cells
Description: as §2
The residence time (RT) was calculated as the reciprocal of the ligand dissociation rate constant as follows: RT=1/koff

human A3AR [9] = target: T1, human A3AR; assay: [3H]PSB-11 saturation binding (KD used for the Ki calculation); design: expressed in transfected cells; settings: radioligand, saturation binding assay of this study, read-out: KD, equilibrium dissociation constant of the labelled ligand
human A3AR [10] = target: T1, human A3AR; assay: [3H]PSB-11 radioligand association and dissociation in Nluc-A3AR HEK293 membranes; format: binding; design: expressed in transfected cells; settings: 10 °C
Description: as §1
To confirm the differences in the kinetics observed with AV039 and XAC-S-ser-S-tyr-X-BY630, radioligand equilibrium and kinetic binding assays in membranes from HEK293 cells stably expressing Nluc-A3AR were undertaken.

[11] = read-out: Kinetics koff (converted)
[12] = read-out: Kinetics kon (converted)
[13] = NanoBRET competition association with 40 nM AV039, Nluc-A3AR HEK293 cells, 37 °C
[14] = association and dissociation curves of 10 nM [3H]PSB-11, Nluc-A3AR HEK293 membranes

COc1ccc(-n2nc3c(NC(=O)CCC(=O)NCCOCCOCCNC(=O)CCCCCNC(=O)COc4ccc(/C=C/C5=[N+]6C(=Cc7ccc(-c8cccs8)n7[B-]6(F)F)C=C5)cc4)nc4ccccc4n3c2=O)cc1 [AV039]
koff (human A3AR [1]; [11]): 0.00127 s⁻¹ | kon (human A3AR [1]; [12]): 54500 M⁻¹ s⁻¹ | Kd (human A3AR [1]): 23.4 nM | Kd (human A3AR [2]): 44.7 nM | residence time (human A3AR [2]): 6.8 ± 0.8 min | koff (human A3AR [2]): 0.0025 s⁻¹ | kon (human A3AR [2]): 61200 M⁻¹ s⁻¹ | Ki (human A3AR [3]): 22.4 nM | Kd (human A3AR [4]): 7.76 nM

COc1cccc(Cn2c(=O)n(CC3CC3)c(=O)c3c2nc2cc(OC)ccn23)c1 [LUF7565]
Ki (human A3AR [5]): 100 nM | Ki (human A3AR [6]): 11.7 nM | koff (human A3AR [1]; read-out: Kinetics koff): 0.000108 s⁻¹ | kon (human A3AR [1]; read-out: Kinetics kon): 136000 M⁻¹ s⁻¹ | Kd (human A3AR [1]): 0.776 nM | Kd (human A3AR [7]; [13]): 6.76 nM | koff (human A3AR [7]; read-out: Kinetics koff (probe AV039)): 0.00025 s⁻¹ | kon (human A3AR [7]; read-out: Kinetics kon (probe AV039)): 44700 M⁻¹ s⁻¹ | Kinetics RT (probe AV039) (human A3AR [7]; 37 °C): 72.9 ± 8.3 min | Ki (human A3AR [3]): 1.02 nM | Kd (human A3AR [8]): 13.5 nM | koff (human A3AR [8]; NanoBRET competition association with 20 nM XAC-S-ser-S-tyr-X-BY630, Nluc-A3AR HEK293 cells, 37 °C, read-out: Kinetics koff (probe XAC-S-ser-S-tyr-X-BY630) (converted)): 0.000367 s⁻¹ | kon (human A3AR [8]; NanoBRET competition association with 20 nM XAC-S-ser-S-tyr-X-BY630, Nluc-A3AR HEK293 cells, 37 °C, read-out: Kinetics kon (probe XAC-S-ser-S-tyr-X-BY630) (converted)): 26800 M⁻¹ s⁻¹ | Kinetics RT (probe XAC-S-ser-S-tyr-X-BY630) (human A3AR [8]; 37 °C): 49.2 ± 6.7 min

CC[C@@H]1CN2C(=O)N(C)c3nc(-c4ccccc4)[nH]c3C2=N1 [PSB-11]
Kinetics RT (probe AV039) (human A3AR [7]; 37 °C): 6.6 ± 1.3 min | Kinetics RT (probe XAC-S-ser-S-tyr-X-BY630) (human A3AR [8]; 37 °C): 22.4 ± 6.1 min

CCCn1c(=O)c2[nH]c(-c3ccc(OCC(=O)NCCNC(=O)[C@H](CO)NC(=O)[C@H](Cc4ccc(O)cc4)NC(=O)CCCCCNC(=O)COc4ccc(/C=C/C5=[N+]6C(=Cc7ccc(-c8cccs8)n7[B-]6(F)F)C=C5)cc4)cc3)nc2n(CCC)c1=O [XAC-S-ser-S-tyr-X-BY630]
koff (human A3AR [1]; [11]): 3.83e-05 s⁻¹ | kon (human A3AR [1]; [12]): 2330 M⁻¹ s⁻¹ | Kd (human A3AR [1]): 18.2 nM | residence time (human A3AR [1]; read-out: RT (residence time)): > 450 min | Kd (human A3AR [2]): 2.69 nM | residence time (human A3AR [2]): 288 ± 62 min | koff (human A3AR [2]): 7.17e-05 s⁻¹ | kon (human A3AR [2]): 27700 M⁻¹ s⁻¹ | Ki (human A3AR [3]): 61.7 nM | Kd (human A3AR [4]): 3.09 nM

CCCn1c(=O)c2[nH]c(-c3ccc(OCC(=O)NCCNC(=O)[C@H](CO)NC(=O)[C@H](Cc4ccc(O)cc4)NC(=O)CCCCCNC(=O)CCc4ccc5n4[B-](F)(F)[N+]4=C(C)C=C(C)C4=C5)cc3)nc2n(CCC)c1=O [XAC-S-ser-S-tyr-X-BYFL]
Kd (human A3AR [2]): 17.8 nM | residence time (human A3AR [2]): 14.9 ± 1.1 min | koff (human A3AR [2]): 0.00115 s⁻¹ | kon (human A3AR [2]): 65800 M⁻¹ s⁻¹ | Kd (human A3AR [4]): 16.6 nM

COc1ccn2c(c1)nc1c2c(=O)[nH]c(=O)n1Cc1ccccc1 [compound 5, 1-Benzyl-8-methoxy-1H,3H-pyrido[2,1-f]purine-2,4-dione]
Ki (human A3AR [5]): 832 nM | Ki (human A3AR [6]): 89.1 nM | koff (human A3AR [1]; [11]): 0.0033 s⁻¹ | kon (human A3AR [1]; [12]): 110000 M⁻¹ s⁻¹ | Kd (human A3AR [1]): 29.5 nM | koff (human A3AR [7]; NanoBRET competition association with 40 nM AV039, Nluc-A3AR HEK293 cells, 37 °C, read-out: Kinetics koff (probe AV039) (converted)): 0.0235 s⁻¹ | kon (human A3AR [7]; NanoBRET competition association with 40 nM AV039, Nluc-A3AR HEK293 cells, 37 °C, read-out: Kinetics kon (probe AV039) (converted)): 183000 M⁻¹ s⁻¹ | Kd (human A3AR [7]; [13]): 123 nM | Kinetics RT (probe AV039) (human A3AR [7]; 37 °C): 1.1 ± 0.4 min | Ki (human A3AR [3]): 44.7 nM | Kd (human A3AR [8]): 288 nM | koff (human A3AR [8]; read-out: Kinetics koff (probe XAC-S-ser-S-tyr-X-BY630)): 0.000783 s⁻¹ | kon (human A3AR [8]; read-out: Kinetics kon (probe XAC-S-ser-S-tyr-X-BY630)): 2670 M⁻¹ s⁻¹ | Kinetics RT (probe XAC-S-ser-S-tyr-X-BY630) (human A3AR [8]; 37 °C): 23.2 ± 3.6 min

[^3H]8-Ethyl-4-methyl-2-phenyl-(8R)-4,5,7,8-tetrahydro-1H-imidazo[2,1-i]-purin-5-one [[^3H]PSB-11]
Kd (human A3AR [9]): 9.9 nM | Kinetics kon (human A3AR [10]; [14]): 2.75 ± 0.52 × 10^6 M^−1 min^−1 | Kinetics pKD (human A3AR [10]; [14]): 8.04 ± 0.08 | Kinetics koff (human A3AR [10]; association and dissociation curves of 10 nM [3H]PSB-11, dissociation initiated with 10 μM PSB-11, membranes): 0.000383 ± 3.3e-05 s⁻¹ | Kinetics RT (residence time) (human A3AR [10]; reciprocal of koff, 10 nM [3H]PSB-11, Nluc-A3AR HEK293 membranes): 44.6 ± 3.9 min
